The values that follow come from ChEMBL document CHEMBL1159202, “A furanoid labdane diterpene from Potamogeton nodosus” (1998).

What all share (format): functional
One experiment has as its system Bacillus subtilis. As to the kind of experiment: Antimicrobial activity against Bacillus subtilis by disk diffusion method.
The next experiment deals with Staphylococcus aureus. In words: Antimicrobial activity against Staphylococcus aureus by disk diffusion method.
The subject of another experiment is Shigella dysenteriae. As to the kind of experiment: Antimicrobial activity against Shigella shigae by disk diffusion method.
The subject of a further experiment is Shigella sonnei. As to the kind of experiment: Antimicrobial activity against Shigella sonnei by disk diffusion method.
The next experiment deals with Bacillus cereus. In words: Antimicrobial activity against Bacillus cereus by disk diffusion method.
In another experiment the test system is Shigella boydii. As to the kind of experiment: Antimicrobial activity against Shigella boydii by disk diffusion method.
The test system of another experiment is Enterococcus faecalis. As to the kind of experiment: Antimicrobial activity against sStreptococcus faecalis by disk diffusion method.

For the molecule `C=C1CC[C@H]2[C@@]3(C)CCC[C@]2(C(=O)OC3)[C@H]1CC(=O)c1ccoc1`, the “inhibition zone (IZ)” value turned out to be 16 mm in the experiment with Bacillus subtilis; 14 mm in the experiment with Staphylococcus aureus; 12 mm in the experiment on Shigella dysenteriae; 10 mm in the experiment on Shigella sonnei; 13 mm in the experiment with Bacillus cereus; 8 mm with Shigella boydii. Further, the “inhibition zone (IZ)” value with Enterococcus faecalis is reported as 12 mm.
Consider `C[C@H]1c2cccc(O)c2C(=O)C2=C(O)[C@]3(O)C(=O)C(C(N)=O)=C(O)[C@@H](N(C)C)[C@@H]3[C@@H](O)[C@@H]21.O` [DOXYCYCLINE], for which the “inhibition zone (IZ)” value with Bacillus subtilis is reported as 34 mm; in the experiment on Staphylococcus aureus, 35 mm; with Shigella dysenteriae it was 37 mm; in the experiment with Shigella sonnei, 30 mm; with Bacillus cereus it was 31 mm; in the experiment on Shigella boydii, 38 mm. For the same molecule, the “inhibition zone (IZ)” value with Enterococcus faecalis is 35 mm.
